Where two headings read alike, the source gives them in different places.
Legend:
[1] = biological target: T1, IRAK1 (Homo sapiens, UniProt P51617); experiment: RBC HotSpot Kinase Assay, IRAK1; assay type: biochemical; settings: isolated kinase enzyme, 33P-ATP, P81 filter-binding
T1 construct: purchased Reaction Biology (RBC HotSpot)
Text: (§1) This assay uses the isolated kinase enzyme. […] Unlike kinase binding assays that measure competition for ATP, the HotSpot Kinase Assay is a functional assay that measures catalytic activity; as such it measures relative functional potency regardless of the mechanism of enzyme inhibition. This assay uses the form of the various enzymes that are easiest to express, which may not necessarily be the form of the enzyme that exist in the cell. (Sometimes the carboxy terminus has been truncated to aid in expression, or, if it is a receptor kinase, the enzyme itself is isolated from the other parts of the receptor that are involved in regulating kinase activity.)
(§2) The reagent used was as follows: Base Reaction buffer; 20 mM Hepes (pH 7.5), 10 mM MgCl2, 1 mM EGTA, 0.01% Brij35, 0.02 mg/ml BSA, 0.1 mM Na3VO4, 2 mM DTT, 1% DMSO. Required cofactors were added individually to each kinase reaction.

[2] = test system: MOLM14 D835Y cells; experiment: MOLM14 D835Y cell viability assay (Cell Titer Glo); assay type: cell-based; settings: cell viability, Cell Titer Glo, 48 hours, read-out: MOLM14 D835Y IC50
Experimental: Both cell lines have activated FLT3 receptors, each of which carry additional resistance mutations in the kinase domain (D835Y and F691L, respectively).
For viability/cytotoxicity assessments, cells were seeded into 1536-well white polystyrene tissue culture-treated Greiner plates using a Multidrop Combi dispenser (ThermoFisher), in final volume 5 μL of growth media per well, at a density of 1000 cells per well. […] Plates were incubated for 48 hours at standard incubator conditions covered by a stainless steel gasketed lid to prevent evaporation. 48 hours post compound addition, 3 μL of Cell Titer Glo (Promega) were added to each well and plates were incubated at room temperature for 15 minutes with the stainless-steel lid in place. Luminescence readings were taken using a Viewlux imager (PerkinElmer) with a 2 second exposure time per plate.

[3] = biological target: T2, IRAK4 (Homo sapiens, UniProt Q9NWZ3); experiment: RBC HotSpot Kinase Assay, IRAK4; assay type: biochemical; parameters: purchased Reaction Biology (RBC HotSpot); settings: isolated kinase enzyme, 33P-ATP, P81 filter-binding
T2 sequence (Q9NWZ3 1-460): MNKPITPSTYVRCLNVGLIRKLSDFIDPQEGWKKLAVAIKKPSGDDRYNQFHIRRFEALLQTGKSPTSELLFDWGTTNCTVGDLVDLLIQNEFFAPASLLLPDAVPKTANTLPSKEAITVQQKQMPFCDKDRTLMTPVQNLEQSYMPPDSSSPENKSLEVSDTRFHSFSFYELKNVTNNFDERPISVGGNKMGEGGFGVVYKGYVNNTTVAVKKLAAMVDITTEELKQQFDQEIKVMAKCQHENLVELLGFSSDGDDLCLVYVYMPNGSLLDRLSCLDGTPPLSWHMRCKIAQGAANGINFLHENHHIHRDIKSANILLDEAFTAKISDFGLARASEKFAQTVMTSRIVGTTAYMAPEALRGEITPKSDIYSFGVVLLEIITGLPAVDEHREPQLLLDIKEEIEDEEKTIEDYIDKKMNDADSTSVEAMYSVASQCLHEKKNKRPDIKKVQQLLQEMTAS
Text: as §1, with “enzyme. This assay is very useful for determining competition of the inhibitor for ATP and/or substrates and for measuring the kinetics of enzyme inhibition.” for “enzyme.”
as §2
The reaction procedure was as follows: • 1) Substrates were prepared in freshly prepared Reaction Buffer. • 2) Any required cofactors were delivered to the substrate solution above. • 3) Kinase was delivered into the substrate solution and gently mixed. • 4) Compounds were delivered in 1000A DM into the kinase reaction mixture by Acoustic technology (Echo550; nanoliter range), followed by incubation for 20 min at room temp. • 5) 33P-ATP was delivered into the reaction mixture to initiate the reaction. • 6) The mixture was incubated for 2 hours at room temperature. • 7) Kinase activity was detected by P81 filter-binding method.

[4] = biological target: T3, FLT3 (Homo sapiens, UniProt P36888); experiment: RBC HotSpot Kinase Assay, FLT3; assay type: biochemical; parameters: purchased Reaction Biology (RBC HotSpot); settings: isolated kinase enzyme, 33P-ATP, P81 filter-binding
T3 sequence (P36888 27-993): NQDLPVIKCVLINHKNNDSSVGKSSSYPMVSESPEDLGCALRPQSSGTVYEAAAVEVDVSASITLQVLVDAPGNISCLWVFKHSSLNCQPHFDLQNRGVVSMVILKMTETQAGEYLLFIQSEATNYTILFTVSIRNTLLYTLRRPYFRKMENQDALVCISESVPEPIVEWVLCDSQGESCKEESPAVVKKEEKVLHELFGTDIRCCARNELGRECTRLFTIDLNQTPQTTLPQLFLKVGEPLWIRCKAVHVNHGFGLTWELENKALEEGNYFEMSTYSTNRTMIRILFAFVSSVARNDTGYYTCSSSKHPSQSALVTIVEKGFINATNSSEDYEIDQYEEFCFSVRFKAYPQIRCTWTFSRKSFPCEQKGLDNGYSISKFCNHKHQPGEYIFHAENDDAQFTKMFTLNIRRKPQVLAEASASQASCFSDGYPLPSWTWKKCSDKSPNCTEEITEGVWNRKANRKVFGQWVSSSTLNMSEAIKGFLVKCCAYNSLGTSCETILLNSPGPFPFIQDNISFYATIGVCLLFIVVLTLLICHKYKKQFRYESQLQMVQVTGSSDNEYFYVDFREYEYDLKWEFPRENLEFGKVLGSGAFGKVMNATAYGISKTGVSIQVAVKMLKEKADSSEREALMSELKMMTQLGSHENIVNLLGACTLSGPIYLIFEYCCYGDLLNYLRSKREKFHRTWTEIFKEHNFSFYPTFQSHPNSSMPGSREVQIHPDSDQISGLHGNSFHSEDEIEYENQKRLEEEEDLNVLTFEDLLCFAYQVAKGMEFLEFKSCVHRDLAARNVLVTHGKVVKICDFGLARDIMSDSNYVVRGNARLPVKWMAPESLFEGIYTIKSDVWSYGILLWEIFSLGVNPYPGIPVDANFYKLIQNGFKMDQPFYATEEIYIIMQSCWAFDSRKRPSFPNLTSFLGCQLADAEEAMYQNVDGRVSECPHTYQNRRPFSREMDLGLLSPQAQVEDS
Text: as §1, §2

T1 sequence (P51617 whole entry): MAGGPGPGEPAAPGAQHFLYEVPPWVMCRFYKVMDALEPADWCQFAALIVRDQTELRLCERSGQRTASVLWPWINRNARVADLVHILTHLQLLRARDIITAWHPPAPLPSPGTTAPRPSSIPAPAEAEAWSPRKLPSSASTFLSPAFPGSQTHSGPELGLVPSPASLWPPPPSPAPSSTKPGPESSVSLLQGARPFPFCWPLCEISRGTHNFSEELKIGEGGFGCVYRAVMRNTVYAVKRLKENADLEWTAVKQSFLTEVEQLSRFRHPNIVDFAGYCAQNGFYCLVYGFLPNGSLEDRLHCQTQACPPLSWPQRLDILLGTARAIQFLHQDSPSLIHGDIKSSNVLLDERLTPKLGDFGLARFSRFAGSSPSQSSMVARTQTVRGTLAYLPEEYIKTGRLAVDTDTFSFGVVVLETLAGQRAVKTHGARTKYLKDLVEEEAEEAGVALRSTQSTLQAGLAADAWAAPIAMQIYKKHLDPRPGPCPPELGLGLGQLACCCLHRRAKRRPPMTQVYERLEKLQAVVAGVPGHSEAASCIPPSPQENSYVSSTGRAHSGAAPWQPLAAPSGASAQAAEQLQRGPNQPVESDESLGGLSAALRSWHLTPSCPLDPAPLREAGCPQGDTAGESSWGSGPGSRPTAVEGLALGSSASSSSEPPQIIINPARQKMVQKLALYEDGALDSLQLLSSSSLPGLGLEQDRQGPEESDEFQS

Structure (SMILES) | IC50 [1] [nM] | IC50 ([2]; Homo sapiens, MOLM-14, 48 h) [nM] | IC50 [3] [nM] | IC50 [4] [nM] | IC50 [2] [nM]
COc1cc2ncc(-c3nc(N[C@H]4CNC[C@@H]4F)ncc3F)n2nc1C1CC1 [Compound 2a, 4-(6-cyclopropyl-7-methoxyimidazo[1,2-b]pyridazin-3-yl)-5-fluoro-N-((3S,4S)-4-fluoropyrrolidin-3-yl)pyrimidin-2-amine] | 1 | 4 | 0.7 | < 0.5 | –
[2H]C([2H])([2H])Oc1cc2ncc(-c3ccnc(N[C@H]4CNCC[C@@H]4F)n3)n2nc1C1CC1 [Compound 128a, 4-(6-cyclopropyl-7-(methoxy-d3)imidazo[1,2-b]pyridazin-3-yl)-N-((3S,4S)-4-fluoropiperidin-3-yl)pyrimidin-2-amine] | 24 | – | 0.7 | < 0.5 | –
[2H]C([2H])([2H])Oc1cc2ncc(-c3ccnc(N[C@@H]4CCCNC4)n3)n2nc1C1CC1 [Compound 129a, (R)-4-(6-cyclopropyl-7-(methoxy-d3)imidazo[1,2-b]pyridazin-3-yl)-N-(piperidin-3-yl)pyrimidin-2-amine] | 86 | – | 2 | < 0.5 | –
CC(O)(c1ccc2ncc(-c3ccnc(N[C@H]4CNC[C@@H]4F)n3)n2c1)C(F)(F)F (single isomer, unassigned) [Compound 24a] | 16 | 41 | 0.9 | < 0.5 | –
COc1cc2ncc(-c3ccnc(N[C@H]4CNC[C@@H]4F)n3)n2nc1N1CC(F)(F)C1 [Compound 16a, 4-(6-(3,3-difluoroazetidin-1-yl)-7-methoxyimidazo[1,2-b]pyridazin-3-yl)-N-((3S,4S)-4-fluoropyrrolidin-3-yl)pyrimidin-2-amine] | 245 | 182 | 8 | < 0.5 | –
COc1cc2ncc(-c3ccnc(N[C@@H]4CCCNC4)n3)n2nc1C1CCC1 [Compound 78a, (R)-4-(6-cyclobutyl-7-methoxyimidazo[1,2-b]pyridazin-3-yl)-N-(piperidin-3-yl)pyrimidin-2-amine] | 75 | 29 | 7 | < 0.5 | –
CC(O)(c1cn2c(-c3nc(N[C@@H]4CCCNC4)ncc3F)cnc2cn1)C(F)(F)F (single isomer, unassigned) [Compound 132a] | 3 | – | 2 | < 0.5 | –
COc1cc2ncc(-c3nc(N[C@@H]4CCCNC4)ncc3F)n2nc1C(C)(C)O [Compound 43a, (R)-2-(3-(5-fluoro-2-(piperidin-3-ylamino)pyrimidin-4-yl)-7-methoxyimidazo[1,2-b]pyridazin-6-yl)propan-2-ol] | 50 | 23 | 29 | 1 | –
COc1cc2ncc(-c3ccnc(N[C@H]4CNC[C@@H]4F)n3)n2nc1C1CC(F)(F)C1 [Compound 20a, 4-(6-(3,3-difluorocyclobutyl)-7-methoxyimidazo[1,2-b]pyridazin-3-yl)-N-((3S,4S)-4-fluoropyrrolidin-3-yl)pyrimidin-2-amine] | 170 | 182 | 12 | 0.7 | –
CC(O)(c1ccc2ncc(-c3cncc(N[C@@H]4CCCNC4)n3)n2c1)C(F)(F)F (single isomer, unassigned) [Compound 29a] | 27 | – | 0.8 | 1 | 106
CC(O)(c1ccc2ncc(-c3nc(N[C@H]4CNC[C@@H]4F)ncc3F)n2c1)C(F)(F)F (single isomer, unassigned) [Compound 38a] | 1 | – | 0.6 | < 0.5 | 51
COc1cc2ncc(-c3nc(N[C@H]4CNCC[C@@H]4F)ncc3F)n2nc1C1(C)COC1 [Compound 70a, 5-fluoro-N-((3S,4S)-4-fluoropiperidin-3-yl)-4-(7-methoxy-6-(3-methyloxetan-3-yl)imidazo[1,2-b]pyridazin-3-yl)pyrimidin-2-amine] | 3 | – | < 0.5 | < 0.5 | –
CC(O)(c1cn2c(-c3nc(N[C@H]4CNCC[C@@H]4F)ncc3F)cnc2cn1)C(F)(F)F (single isomer, unassigned) [Compound 134a] | 2 | – | 1 | < 0.5 | –
COc1cc2ncc(-c3nc(N[C@H]4CNC[C@@H]4F)ncc3F)n2nc1C(C)(C)O [Compound 44a, 2-(3-(5-fluoro-2-(((3S,4S)-4-fluoropyrrolidin-3-yl)amino)pyrimidin-4-yl)-7-methoxyimidazo[1,2-b]pyridazin-6-yl)propan-2-ol] | 32 | 51 | 4 | < 0.5 | –
COc1cc2ncc(-c3nc(N[C@H]4CNC[C@@H]4F)ncc3F)n2nc1C1CC(F)(F)C1 [Compound 50a, 4-(6-(3,3-difluorocyclobutyl)-7-methoxyimidazo[1,2-b]pyridazin-3-yl)-5-fluoro-N-((3S,4S)-4-fluoropyrrolidin-3-yl)pyrimidin-2-amine] | 3 | 29 | 0.8 | < 0.5 | –
CC(O)(c1ccc2ncc(-c3cncc(N[C@H]4CNC[C@@H]4F)n3)n2c1)C(F)(F)F (single isomer, unassigned) [Compound 32a] | 53 | – | 1 | 2 | 408
CC(O)(c1cn2c(-c3nc(N[C@@H]4CCCNC4)ncc3F)cnc2cn1)C(F)(F)F (single isomer, unassigned) [Compound 131a] | 15 | – | 28 | 2 | –
CC(O)(c1cn2c(-c3nc(N[C@H]4CNCC[C@@H]4F)ncc3F)cnc2cn1)C(F)(F)F (single isomer, unassigned) [Compound 133a] | 15 | – | 15 | 1 | –
